These results are taken from patent US20230123889A1, “METHOD FOR DEGRADING BENZO(A)PYRENE WITH A HALOPHILIC BACTERIUM STRAIN OF STAPHYLOCOCCUS HAEMOLITICUS” (KING FAHD UNIVERSITY OF PETROLEUM AND MINERALS, priority 2021, published 2023).

What all share (assay type): cell-based
Data set [1] deals with Staphylococcus haemoliticus 10SBZ1A strain. Kind of data set: Bacterial growth assessment (doubling time, CFU/ml) in the presence of BZP and various hydrocarbon substrates as carbon source. To be noted: for Doubling time (dt, h): strain growing on BaP; for strain dt in the presence of substrate (FIG. 3): substrate as carbon source. Here is the method:
Bacterial growth assessment in the presence of BZP and various hydrocarbon molecules: effect of pH and salinity. To initiate these experiments, bacteria were pre-cultured in an LB rich medium, and around 5×10^5 colony forming units (CFU) of these bacteria were added to 50 ml BH medium containing 100 μmol BZP, unless otherwise stated. Non-polar substrates pyrene, phenanthrene, naphthalene and anthracene were dissolved in dimethyl sulfoxide (DMSO) [0.1 g/ml], while the water-soluble substrates SALC and CATC were dissolved directly in BH medium. The aliphatic compounds were directly added to the medium. […] Growth was monitored as a measure of CFU/ml.
Bacterial doubling time (dt) was calculated by fitting growth curves data points into […] equation, where Q is the bacterial CFU ml^−1 at time t, Qo is the initial bacterial count in the culture, and k is the growth rate. The growth rate (k) was then used to compute dt values according to the equation: dt=ln(2)/k (in days). Values were calculated with Microsoft Excel software (Version). All experiments were carried out in duplicate.

Data set [2] shares this test system. The data set is described as above.
Data set [3] shares this test system. Kind of data set: Quantification of BZP and substrate utilization in bacterial culture (GC-MS). The note with it: control without bacteria. The procedure: Quantification of BZP and substrate utilization. The remaining BZP was quantified in a bacterial culture of 100 ml containing 20 μmol BZP for 18 days, according to the protocol reported by and incorporated by reference to Budiyanto, F, et al. (2017). Characterization of halophilic bacteria capable of efficiently biodegrading the high molecular weight polycyclic aromatic hydrocarbon pyrene. Environmental Engineering Science. June 2018.616-626.
A sample corresponding to one culture flask of 100 ml, was collected every 5 days and subjected to extraction as follows. The samples were sonicated for 30 min and then extracted twice with ethyl acetate (50 ml). The combined organic layers were dehydrated with calcium chloride and then dried under vacuum. Samples were re-dissolved in 500 μl of chloroform prior to analysis by gas chromatography-mass spectrometry (GC-MS). […] Values of quantified BZP were fitted in the exponential decay equation, Qt=Qoe^−kt to obtain the biodegradation rate constant (k); see Lu, J, C Guo, et al. (2014). […]
The mixture was then diluted with 1.0 ml of chloroform prior to its analysis by GC-MS. […] Values of quantified BZP were fitted in the exponential decay equation, Qt=Qoe^−kt to obtain the biodegradation rate constant (k); see Lu et al., International Biodeterioration & Biodegradation 87: 75-80.

Marks after values point to notes of the source that are not given here.

For the molecule `c1ccc2c(c1)cc1ccc3cccc4ccc2c1c34` [BZP, benzo(a)pyrene], the growth entry in data set [1] (0% NaCl) and in data set [1] (20% NaCl) was “No growth” throughout. In addition, the doubling time in data set [1] (4-200 μmol of BZP as sole source of carbon) lay in the range of 2 to 10 h. Further, the maximum count in data set [1] (BZP 20 μmol.1^−1) is listed as > 10^9 CFU ml^−1; in data set [1] (BZP 5 to 20 μmol.1^−1), 10^7-10^8 CFU/ml. Moreover, the “time at which the maximum growth was achieved” value in data set [1] (BZP 400 μmol.1^−1) stood at 15 days. Moreover, the values for the dt values in data set [1] (BZP 1 to 100 μmol.1^1) and in data set [1] (pH 7) were 15 to 20 h and 21.49±0.98, respectively. Moreover, in data set [1] (BZP 5 to 20 μmol.1^−1), the “time to reach maximum growth” value lay in the range of 6 to 8 days. In addition, the “dt values relative to those at 1 to 100 μmol.1^1” value in data set [1] (BZP 200 and 400 μmol.1^−1) is recorded as “almost doubled”. The “Doubling time (dt, h)” value in data set [1] (Salinity 5% NaCl) was determined as 44 ± 7 h; in data set [1] (Salinity 5% NaCl, listed as benzo(a)pyrene), 46.8 ± 7.4 h; in data set [1] (Salinity 10% NaCl), 21 ± 1 h; in data set [1] (Salinity 10% NaCl, listed as benzo(a)pyrene), 21.5 ± 1.0 h; in data set [1] (Salinity 15% NaCl) it was 156 ± 73 h; in data set [1] (Salinity 15% NaCl, listed as benzo(a)pyrene), 156 ± 74 h. For the same molecule, the “Doubling time (dt, h)” value was 28.5 ± 2.4^b h in data set [1] (Temperature 35° C.); 21.5 ± 1.0^b h in data set [1] (Temperature 37° C.); 24.5 ± 1.0 h in data set [1] (Temperature 40° C.); 21.5 ± 1.0 h in data set [1] (pH 7); 21+1 h in data set [2] (Temperature 37° C., strain growing on BaP). Besides, the “growth at other pH values” in data set [1] (pH 5, 6, 8 and 9) is reported as “slow”. Also, in data set [1], the “strain dt in the presence of substrate (FIG. 3)” value is “around 42 h”. In addition, in data set [2] (temperatures 35, 37, 40° C.), the range of dt fell in the range of 21 to 29 h. Besides, the abiotic degradation entry in data set [3] is “Around 20%”.
As to `c1ccc2cc3ccccc3cc2c1` [anthracene], in data set [1], the “strain dt in the presence of substrate (FIG. 3)” value was 30 to 33 h.
On the same count and under the same terms, the same measure for `OCC(O)CO` [glycerol]: “around 11 hours”; for `c1cc2ccc3cccc4ccc(c1)c2c34` [pyrene]: “similar”.
